According to patent publication US5684151A, “1-arylsulphonyl, arylcarbonyl and 1-arylphosphonyl-3-phenyl-1,4,5,6-tetrahydropyridazines” (priority 1995, dated 1997):
Where two headings read alike, the source gives them in different places.

Experiments:
[1] = test system: mouse (MC3T3-E1) and human (TE-85) osteoblast-line cells; format: cell-based
Method in brief: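 MC3T3-E1 or TE-85 cells were plated overnight in DMEM/25 mM HEPES/10% FBS and then preincubated 24 h in 0.1% FBS. Compounds were added for 20 h, followed by a 4 h pulse of 0.4 μCi ^3H-thymidine. Incorporated radioactivity served as the proliferation index, expressed as % of control (control = 100%).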

[2] = target: T1, progestin receptor from rabbit uterus (Oryctolagus cuniculus, UniProt P06186); test: Progestin receptor binding (3H-R5020 displacement); settings: rabbit uterine cytosol, 4° C., 18 h, read-out: IC50: Binding affinity for the progestin receptor from rabbit uterus
T1 construct: Cytosolic progestin receptor were obtained by mixing rabbit uterine tissue with a Tris buffer; from tissue; host or cells: rabbit uterus cytosol
Method in brief: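 Rabbit uterine cytosol in Tris buffer pH 7.4 with EDTA, DTT and molybdate was incubated with 3H-R5020 and test compound (5% DMSO final) at 4 °C for about 18 h. Bound ligand was separated with dextran-coated charcoal and counted by scintillation; IC50 is 50% radioligand displacement, with nonspecific binding defined by excess unlabelled ligand.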

T1 sequence (P06186 whole entry): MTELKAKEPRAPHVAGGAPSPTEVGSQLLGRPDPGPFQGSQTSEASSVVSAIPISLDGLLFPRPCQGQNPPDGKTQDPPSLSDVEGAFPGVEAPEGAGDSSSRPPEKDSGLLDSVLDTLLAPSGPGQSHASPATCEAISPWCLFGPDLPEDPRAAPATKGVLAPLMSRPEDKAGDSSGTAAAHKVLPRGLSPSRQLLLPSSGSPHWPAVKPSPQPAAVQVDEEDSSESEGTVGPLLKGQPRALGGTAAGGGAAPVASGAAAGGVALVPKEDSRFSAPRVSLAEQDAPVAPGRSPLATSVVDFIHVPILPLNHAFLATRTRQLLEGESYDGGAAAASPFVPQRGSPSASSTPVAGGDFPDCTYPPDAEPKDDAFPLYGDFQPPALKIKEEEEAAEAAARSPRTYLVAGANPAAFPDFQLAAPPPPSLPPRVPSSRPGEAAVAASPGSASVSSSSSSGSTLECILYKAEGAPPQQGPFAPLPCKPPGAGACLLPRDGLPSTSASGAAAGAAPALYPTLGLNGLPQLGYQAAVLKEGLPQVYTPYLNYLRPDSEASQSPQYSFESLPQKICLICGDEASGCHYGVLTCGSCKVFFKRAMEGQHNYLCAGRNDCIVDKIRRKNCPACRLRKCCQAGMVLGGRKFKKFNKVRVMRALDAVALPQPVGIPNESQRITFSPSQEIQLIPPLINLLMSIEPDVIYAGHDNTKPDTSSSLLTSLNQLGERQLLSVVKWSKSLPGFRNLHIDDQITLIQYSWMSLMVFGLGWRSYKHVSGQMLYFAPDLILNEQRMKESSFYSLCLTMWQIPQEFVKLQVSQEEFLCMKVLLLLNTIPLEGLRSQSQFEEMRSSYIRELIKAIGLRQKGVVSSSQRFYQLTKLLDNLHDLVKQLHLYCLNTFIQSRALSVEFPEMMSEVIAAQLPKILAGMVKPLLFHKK

Row | SMILES | Osteoblast Cell Proliferation, 3H-thymidine incorporation vs control (100%) ([1]; 10^-6) | Osteoblast Cell Proliferation, 3H-thymidine incorporation vs control (100%) ([1]; 10^-7) | Osteoblast Cell Proliferation, 3H-thymidine incorporation vs control (100%) ([1]; 10^-8) | Osteoblast Cell Proliferation, 3H-thymidine incorporation vs control (100%) ([1]; 10^-9) | Osteoblast Cell Proliferation, 3H-thymidine incorporation vs control (100%) ([1]; 10^-10) | IC50 [2]
1 | COc1ccc(C2=NN(C(=O)c3cccc(Cl)c3)CCC2)cc1 [Compound 188] | 105% | 129% | 130% | 135% | 137% | 100 µM
2 | O=C(c1ccc(Cl)c(Cl)c1)N1CCCC(c2ccc(Cl)cc2)=N1 [Compound 200] | 97% | 109% | 107% | 120% | 88% | 5 µM
3 | O=[N+]([O-])c1ccc(S(=O)(=O)N2CCCC(c3ccc(F)cc3)=N2)cc1 [Compound 10] | 91% | 90% | 123% | 115% | 139% | 1.05 µM
4 | Cc1ccc(S(=O)(=O)N2CCCC(c3ccc4c(c3)CCCC4)=N2)cc1 [Compound 87] | 120% | 115% | 125% | 117% | 127% | 0.0822 µM
5 | O=S(=O)(c1ccc(Cl)cc1)N1CCCC(c2ccc3c(c2)CCCC3)=N1 [Compound 88] | 97% | 109% | 89% | 74% | 62% | 0.0102 µM
6 | O=S(=O)(c1ccc(I)cc1)N1CCCC(c2ccc3c(c2)CCCC3)=N1 [Compound 113] | 66% | 94% | 102% | 102% | 90% | 0.0276 µM
7 | CC(C)(C)c1ccc(C(=O)N2CCCC(c3ccccc3)=N2)cc1 [Compound 197] | 87% | 89% | 91% | 81% | 52% | 100 µM
8 | O=S(=O)(c1c(F)c(F)c(F)c(F)c1F)N1CCCC(c2ccc(F)cc2)=N1 [Compound 152, 3-(4-Fluorophenyl)-1-(pentafluorobenzenesulfonyl)-1,4,5,6-tetrahydropyridazine] | 87% | 123% | 124% | 149% | 161% | 0.175 µM
9 | COC(=O)c1ccccc1S(=O)(=O)N1CCCC(c2ccc(Cl)c(Cl)c2)=N1 [Compound 47] | 109% | 112% | 113% | 115% | 123% | 0.0201 µM
10 | O=S(=O)(/C=C/c1cccc(Cl)c1)N1CCCC(c2ccc(Cl)c(Cl)c2)=N1 [Compound 172] | 134% | 108% | 103% | 106% | 113% | 0.032 µM
11 | O=S(=O)(c1ccc2ccccc2c1)N1CCCC(c2ccc(-c3ccccc3)cc2)=N1 [Compound 85] | 99% | 80% | 76% | 54% | 48% | 1 µM
12 | COP(=O)(c1ccccc1)N1CCCC(c2ccc(Cl)c(C(F)(F)F)c2)=N1 (stereo not drawn) [Compound 261] | 98% | 105% | 95% | 100% | 111% | 0.131 µM
13 | O=[N+]([O-])c1ccc(S(=O)(=O)N2CCCC(c3ccc(Cl)c(Cl)c3)=N2)cc1 [Compound 38] | 76% | 73% | 54% | 49% | 37% | 0.00529 µM
14 | O=C(c1ccc(Br)cc1)N1CCCC(c2ccc(Cl)cc2)=N1 [Compound 198] | 94% | 97% | 112% | 99% | 85% | 10 µM
15 | COc1ccc(C(=O)N2CCCC(c3ccc(OC)cc3)=N2)cc1 [Compound 182] | 95% | 108% | 118% | 139% | 115% | 100 µM
16 | Cc1ccc(S(=O)(=O)N2N=C(c3cccc(Br)c3)CC3C4C5C=CC(C5)C4CC32)cc1 (stereo not drawn) [Compound 161, 1,4,4a,9a-Tetrahydro-1-(4-methylbenzenesulfonyl)-3-(3bromophenyl)bicyclo[2.2.1]hept-7-enyl[5.6-a]cyclopenta[1.2-e]pyridazine] | 76% | 95% | 113% | 122% | 112% | 3 µM
17 | O=C(c1cccc(Cl)c1)N1CCCC(c2ccc(Cl)cc2)=N1 [Compound 199] | 105% | 104% | 96% | 83% | 61% | 100 µM
